Data from US9475766B2, “Substituted aromatic sulfur compounds and methods of their use” (Cephalon, Inc., priority 2011, dated 2016).
Where a name gives a salt, the structure may show the parent alone.

Experiments:
[1] = system: BxPC3 pancreatic cell line; assay: Cell survival and adhesion assay (luciferase), BxPC3; format: cell-based; conditions: BXPC-3, 5 hours, BxPC3 cells overlayed onto human mesothelial cell monolayers, read-out: relative reduction in Luciferase activity, BxPC3 10 μM
How it was run: (§1)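 Luciferase-expressing tumour cells (10^5) were overlaid on confluent human mesothelial cell monolayers together with compound or DMSO for 5 hours. Non-adherent cells were washed off; adherent, surviving cells were lysed, protein-normalised and quantified by firefly luciferase luminescence.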

[2] = system: A2780 ovarian cancer cell line; assay: Cell survival and adhesion assay (luciferase), A2780; format: cell-based; conditions: 5 hours, A2780 cells overlayed onto human mesothelial cell monolayers, read-out: relative reduction in Luciferase activity, A2780 10 μM
How it was run: as §1

[3] = system: SU86 pancreatic cancer cell line (Su.86.86); assay: Cell survival and adhesion assay (luciferase), SU86; format: cell-based; conditions: 5 hours, SU86 cells overlayed onto human mesothelial cell monolayers, read-out: relative reduction in Luciferase activity, SU86 10 μM
How it was run: as §1

[4] = system: HT29 colon cancer cell line; assay: Cell survival and adhesion assay (luciferase), HT29; format: cell-based; conditions: HT-29, 5 hours, HT29 cells overlayed onto human mesothelial cell monolayers, read-out: relative reduction in Luciferase activity, HT29 10 μM
Description: SU86 is a pancreatic cancer cell line. HT29 is a colon cancer cell line. BxPC3 is a pancreatic cell line. A2780 is an ovarian cancer cell line.
BxPc-3 and Su.86.86 pancreatic and HT-29 colon and A2780 ovarian cancer cell lines were purchased from ATCC and cultured in DMEM supplemented with 10% fetal bovine serum, glutamine, penicillin, and streptomycin. All cells were cultured at 37° C. in a humidified incubator in a 5% CO2 atmosphere. The cancer cell lines were transduced with a retrovirus containing pLuc-puro, a constitutive luciferase reporter and selected in […] media. Transient transfection of a full-length human c-FLIP construct in the vector pcDNA3 was performed as previously described. Scaife et al. Cancer Research 2002, 62: 6870-78.
Pancreatic cancer cell cultures (BxPc-3 and Su.86.86) and colon cancer (HT-29) and ovarian cancer (A2780) cells that were stably transfected with a firefly luciferase construct were transiently suspended with trypsin-PBS. 10^5 cells were overlayed onto confluent monolayers of human mesothelial cells in 96-well plates while simultaneously adding various concentrations of compounds of the invention or DMSO for 5 hours. The non-adherent cells were carefully washed away from the wells twice with 100 μl/well of blocking buffer (1% BSA in PBS) and twice again with ice-cold PBS. Adherent and surviving cells were detected by luciferase activity in a luminometer as follows. The cells were lysed in 0.1% TritonX-100, 25 mM Gly-Gly (7.8), MgSO4, 4 mM EGTA, 1 mM DTT. The total protein concentration was normalized with lysis buffer. 50 μl of cell lysate was added per well of a 96-well microtiter plate. 50 μl of luciferin substrate (Promega) was added per well and then the light output determined in a luminometer.

Row | melting point [°C] | Compound | inhibition at 10 µM [1] [%] | inhibition at 10 µM [2] [%] | inhibition at 10 µM [3] [%] | inhibition at 10 µM [4] [%]
1 | 88 to 91 | CCOC(=O)/C=C/S(=O)(=O)c1ccc(C(C)(C)C)cc1 [Example 59, (E)-3-(4-tert-Butyl-benzenesulfonyl)-acrylic acid ethyl ester] | 50 to 85 | 50 to 85 | 10 to 50 | 10 to 50
2 | 54 to 60 | CC(C)(C(=O)N1CCc2ccccc2C1)c1ccc(S(=O)(=O)/C=C/C#N)cc1 [Example 20, (E)-3-{4-[2-(3,4-Dihydro-1H-isoquinolin-2-yl)-1,1-dimethyl-2-oxo-ethyl]-benzenesulfonyl}-acrylonitrile] | > 85 | > 85 | 50 to 85 | –
3 | 47 to 53 | CC(C)(C(=O)NCc1ccc(-n2cccn2)cc1)c1ccc(S(=O)(=O)/C=C/C#N)cc1 (as salt: trifluoroacetic acid salt) [Example 21, 2-[4-((E)-2-Cyano-ethenesulfonyl)-phenyl]-N-(4-pyrazol-1-yl-benzyl)-isobutyramide] | – | – | – | –
4 | 80 | C/C=C/S(=O)(=O)c1ccc(C(C)(C)C)cc1 [Example 56, 1-tert-Butyl-4-[((E)-prop-1-ene)-1-sulfonyl]-benzene] | < 10 | < 10 | < 10 | < 10
5 | 191 to 193 | CC(C)(C(=O)NC1CCCCC1)c1ccc(S(=O)(=O)/C=C/C#N)cc1 [Example 12, 2-[4-((E)-2-Cyano-ethenesulfonyl)-phenyl]-N-cyclohexyl-isobutyramide] | 50 to 85 | 50 to 85 | 50 to 85 | < 10
6 | 99 | C=C(c1ccccc1)S(=O)(=O)c1ccc(C(C)(C)C)cc1 [Example 58, 1-tert-Butyl-4-(1-phenyl-ethenesulfonyl)-benzene] | 50 to 85 | < 10 | 10 to 50 | 10 to 50
7 | 123 to 126 | COc1ccc(NC(=O)C(C)(C)c2ccc(S(=O)(=O)/C=C/C#N)cc2)cc1 [Example 23, 2-[4-((E)-2-Cyano-ethenesulfonyl)-phenyl]-N-(4-methoxy-phenyl)-isobutyramide] | 50 to 85 | > 85 | 50 to 85 | –
8 | 95 | CC(C)(C)c1ccc(S(=O)(=O)/C=C/c2ccccc2)cc1 [Example 57, 1-tert-Butyl-4-((E)-2-phenyl-ethenesulfonyl)-benzene] | < 10 | < 10 | < 10 | < 10
9 | – | CC(C)(C(=O)Nc1ccccc1)c1ccc(S(=O)(=O)/C=C/C#N)cc1 [Example 5, 2-[4-((E)-2-Cyano-ethenesulfonyl)-phenyl]-N-phenyl-isobutyramide] | 50 to 85 | 50 to 85 | 10 to 50 | < 10
10 | 151 | CC(C)(C)c1ccc(S(=O)(=O)/C=C/C(N)=O)cc1 [Example 55, (E)-3-(4-tert-Butyl-benzenesulfonyl)-acrylamide] | 50 to 85 | 10 to 50 | 10 to 50 | 10 to 50
